Active and inactive are the calls of the source. No cut-off for these calls is given here.
How the values were obtained:
[1] = Inhibition of alpha-glucosidase at 100 uM
Rattus norvegicus [2] = assay: Antihyperglycemic activity against sucrose loaded Charles Foster/Wistar albino rat assessed as reduction in blood glucose level at 100 mg/kg, po administered 30 mins before sucrose challenge by glucometer; assay type: functional; parameters: scale not given: the % may be the effect or the level left
[3] = target: T1, Glucose-6-phosphatase catalytic subunit 1 (Homo sapiens) (UniProt P35575); assay: Inhibition of glucose-6-phosphatase at 100 uM
T1 sequence (whole entry): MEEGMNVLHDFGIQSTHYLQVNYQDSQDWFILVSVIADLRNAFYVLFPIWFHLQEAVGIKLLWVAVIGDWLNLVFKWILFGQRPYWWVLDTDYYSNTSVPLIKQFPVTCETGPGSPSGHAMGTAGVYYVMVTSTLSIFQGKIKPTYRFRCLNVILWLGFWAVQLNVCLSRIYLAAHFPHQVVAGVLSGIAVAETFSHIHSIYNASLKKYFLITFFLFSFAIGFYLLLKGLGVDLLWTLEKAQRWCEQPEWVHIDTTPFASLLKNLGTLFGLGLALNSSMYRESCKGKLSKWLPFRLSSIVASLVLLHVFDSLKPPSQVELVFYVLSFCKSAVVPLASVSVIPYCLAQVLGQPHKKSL

Rattus norvegicus [4] = assay: Antihyperglycemic activity against sucrose challenged streptozotocin-induced diabetic Sprague-Dawley albino rat assessed as reduction of AUC of plasma glucose level at 100 mg/kg, po after 1 to 24 hrs administered 30 mins before sucrose challenge by glucometer; assay type: functional; parameters: scale not given: the % may be the effect or the level left
[5] = Inhibition of glycogen phosphorylase at 100 uM
Rattus norvegicus [6] = assay: Antihyperglycemic activity against sucrose challenged streptozotocin-induced diabetic Sprague-Dawley albino rat assessed as reduction of AUC of plasma glucose level at 100 mg/kg, po after 1 to 5 hrs administered 30 mins before sucrose challenge by glucometer; assay type: functional; parameters: scale not given: the % may be the effect or the level left
[7] = target: Dipeptidyl peptidase 4 (Homo sapiens) (UniProt P27487); assay: Inhibition of DPP4 at 100 uM
[8] = target: T2, Tyrosine-protein phosphatase non-receptor type 1 (Homo sapiens) (UniProt P18031); assay: Inhibition of PTP1B at 100 uM
T2 sequence (whole entry): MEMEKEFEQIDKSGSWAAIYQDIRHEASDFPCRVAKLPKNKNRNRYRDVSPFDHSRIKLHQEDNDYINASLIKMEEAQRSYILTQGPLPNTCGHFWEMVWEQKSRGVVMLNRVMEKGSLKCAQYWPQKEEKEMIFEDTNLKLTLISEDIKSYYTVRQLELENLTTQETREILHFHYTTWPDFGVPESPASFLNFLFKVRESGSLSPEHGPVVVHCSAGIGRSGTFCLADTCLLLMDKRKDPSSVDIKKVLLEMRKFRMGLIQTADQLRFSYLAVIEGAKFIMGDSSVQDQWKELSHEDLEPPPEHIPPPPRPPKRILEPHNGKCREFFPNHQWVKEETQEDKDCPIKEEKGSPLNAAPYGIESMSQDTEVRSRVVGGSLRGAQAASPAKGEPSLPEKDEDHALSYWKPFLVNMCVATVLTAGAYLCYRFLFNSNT

[9] = target: T3, Tyrosine-protein phosphatase non-receptor type 1 (Homo sapiens, UniProt P18031); assay: Inhibition of PTP1B
T3 sequence (P18031 whole entry): T2 sequence (whole entry)

Mus musculus [10] = assay: Antihyperglycemic activity in C57BL/Ks db/db mouse assessed as reduction in blood glucose level at 30 mg/kg/day, po measured on day 6 post dose by postprandial oral glucose tolerance test relative to control; assay type: functional; parameters: scale not given: the % may be the effect or the level left
Mus musculus [11] = assay: Antidyslipidemic activity in C57BL/Ks db/db mouse assessed as increase in HDL-cholesterol at 30 mg/kg/day, po relative to control; assay type: functional
Mus musculus [12] = assay: Reduction in food intake in C57BL/Ks db/db mouse at 30 mg/kg/day, po measured from day 3 to day 10; assay type: functional, organism-based
Mus musculus [13] = assay: Antihyperglycemic activity in C57BL/Ks db/db mouse assessed as reduction in blood glucose level at 30 mg/kg/day, po measured day 10 post dose by postprandial oral glucose tolerance test relative to control; assay type: functional; parameters: scale not given: the % may be the effect or the level left
Mus musculus [14] = assay: Antihyperglycemic activity in C57BL/Ks db/db mouse assessed as reduction in insulin level at 30 mg/kg/day, po relative to control; assay type: functional; parameters: scale not given: the % may be the effect or the level left
Mus musculus [15] = assay: Antidyslipidemic activity in C57BL/Ks db/db mouse assessed as reduction in plasma total cholesterol at 30 mg/kg/day, po relative to control; assay type: functional; parameters: scale not given: the % may be the effect or the level left
Mus musculus [16] = assay: Antiobesity activity in C57BL/Ks db/db mouse assessed as reduction in body weight change at 30 mg/kg/day, po measured for 10 days relative to control; assay type: functional, organism-based
Mus musculus [17] = assay: Antihyperglycemic activity in C57BL/Ks db/db mouse assessed as reduction in postprandial hyperglycemia at 30 mg/kg, po measured for 10 days post dose relative to control; assay type: functional; parameters: scale not given: the % may be the effect or the level left
Mus musculus [18] = assay: Antidyslipidemic activity in C57BL/Ks db/db mouse assessed as reduction in plasma triglyceride level at 30 mg/kg/day, po relative to control; assay type: functional; parameters: scale not given: the % may be the effect or the level left

Dipeptidyl peptidase 4 (Homo sapiens), sequence (P27487 whole entry, looked up): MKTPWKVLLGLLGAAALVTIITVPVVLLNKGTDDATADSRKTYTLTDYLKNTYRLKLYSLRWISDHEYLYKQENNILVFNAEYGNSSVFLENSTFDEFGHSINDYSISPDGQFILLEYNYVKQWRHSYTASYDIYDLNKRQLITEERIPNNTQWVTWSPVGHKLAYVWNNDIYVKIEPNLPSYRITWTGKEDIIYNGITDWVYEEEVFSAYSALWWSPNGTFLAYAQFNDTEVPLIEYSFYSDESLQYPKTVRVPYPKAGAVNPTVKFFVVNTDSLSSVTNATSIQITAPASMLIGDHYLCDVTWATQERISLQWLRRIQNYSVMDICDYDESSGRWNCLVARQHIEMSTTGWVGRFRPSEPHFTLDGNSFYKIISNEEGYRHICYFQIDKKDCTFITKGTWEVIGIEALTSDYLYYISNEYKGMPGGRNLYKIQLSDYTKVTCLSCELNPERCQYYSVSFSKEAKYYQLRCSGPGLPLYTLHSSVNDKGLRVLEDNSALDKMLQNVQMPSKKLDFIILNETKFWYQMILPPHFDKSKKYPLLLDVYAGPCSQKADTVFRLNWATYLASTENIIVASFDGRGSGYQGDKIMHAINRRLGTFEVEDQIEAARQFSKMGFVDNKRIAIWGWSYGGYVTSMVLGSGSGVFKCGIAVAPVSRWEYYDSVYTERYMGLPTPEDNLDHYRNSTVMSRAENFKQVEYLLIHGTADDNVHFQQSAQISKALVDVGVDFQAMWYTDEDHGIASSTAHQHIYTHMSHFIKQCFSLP

Row | inhibition [1] | inhibition [3] | inhibition [5] | inhibition [7] | inhibition [8] | IC50 [9] | SMILES | Activity (Rattus norvegicus [2]) | Activity (Rattus norvegicus [4]) | Activity (Rattus norvegicus [6]) | Activity (Mus musculus [10]) | Activity (Mus musculus [11]) | Activity (Mus musculus [12]) | Activity (Mus musculus [13]) | Activity (Mus musculus [14]) | Activity (Mus musculus [15]) | Activity (Mus musculus [16]) | Activity (Mus musculus [17]) | Activity (Mus musculus [18])
1 | < 5% | 13.6% | 19.5% | 25.6% | 42.1% | – | CCC(=O)c1c(O)cccc1OCCCN1CCCC1 | 26.8% | 14.8% | 16.9% | – | – | – | – | – | – | – | – | –
2 | 18.9% | 18.9% | < 5% | < 5% | 79.8% | 12.5 µM | CCC(=O)c1c(O)cccc1OCCCNc1ccc(C)cc1 | 28.7% | 2.02% | 3.02% | – | – | – | – | – | – | – | – | –
3 | < 5% | 13.9% | < 5% | 18.3% | 58.6% | 18.6 µM | CCOC(=O)C(CCCOc1cccc(OCCN2CCCC2)c1C(=O)CC)C(=O)OCC | 22.9% | – | – | – | – | – | – | – | – | – | – | –
4 | 28.9% | < 5% | 13.7% | < 5% | 36.4% | – | CCC(=O)c1c(O)cccc1OCCN1CCCC1 | 21.08% | – | – | – | – | – | – | – | – | – | – | –
5 | 18.4% | 11.3% | < 5% | 24.2% | 19.3% | – | CCC(=O)c1c(O)cccc1OCCN(C)C | 19.45% | 7.4% | 12.1% | – | – | – | – | – | – | – | – | –
6 | 19.3% | < 5% | 23% | 13.7% | 83.6% | 8.3 µM | CCC(=O)c1c(O)cccc1OCCCNc1ccc(OC)cc1 | 54.6% | 22.8% | 22.1% | 28.4% | 7.2% | Active | 29.9% | 23.6% | 14.8% | Active | 23.9% | 22%
7 | 11.8% | < 5% | < 5% | < 5% | 42.6% | – | CCOC(=O)C(CCCOc1cccc(OCCCNc2ccc(C)cc2)c1C(=O)CC)C(=O)OCC | 8.49% | – | – | – | – | – | – | – | – | – | – | –
8 | < 5% | < 5% | < 5% | < 5% | 51.1% | 20.4 µM | CCOC(=O)C(CCCOc1cccc(OCCN(C)C)c1C(=O)CC)C(=O)OCC | 11.5% | – | – | – | – | – | – | – | – | – | – | –
9 | < 5% | < 5% | < 5% | < 5% | 31.8% | – | CCC(=O)c1c(O)cccc1OCCCN1CCCCC1 | 33.2% | 8.6% | 10.2% | – | – | – | – | – | – | – | – | –
10 | – | – | – | – | – | – | COc1ccc(Cl)cc1C(=O)NCCc1ccc(S(=O)(=O)NC(=O)NC2CCCCC2)cc1 [GLYBURIDE] | 32.3% | – | – | – | – | – | – | – | – | – | – | –
11 | – | – | – | – | – | – | CN(C)C(=N)NC(=N)N [METFORMIN] | 18.9% | – | – | – | – | – | – | – | – | – | – | –
12 | < 5% | 17.3% | < 5% | < 5% | 31.9% | – | CCCCN(C)CCCOc1cccc(O)c1C(=O)CC | 23.8% | 21.5% | 27.5% | 26.7% | 4.03% | Active | 33.6% | 27.7% | 20.4% | Active | 39.6% | 23.8%
13 | < 5% | < 5% | < 5% | < 5% | 19.6% | – | CCOC(=O)C(CCCOc1cccc(OCCN2CCCCC2)c1C(=O)CC)C(=O)OCC | 16.4% | – | – | – | – | – | – | – | – | – | – | –
14 | – | – | – | – | – | – | CN(CCOc1ccc(CC2SC(=O)NC2=O)cc1)c1ccccn1 (centres undefined) [ROSIGLITAZONE] | – | – | – | 33.9% | – | – | 46.5% | – | – | – | 51.3% | –
15 | 19.3% | 11.6% | < 5% | < 5% | 28.8% | – | CCC(=O)c1c(O)cccc1OCCN(CC)CC | 38.4% | 20.4% | 23% | – | – | – | – | – | – | – | – | –
16 | < 5% | 18.3% | 24.8% | 17.4% | 52.1% | 19.2 µM | CCCCNCCCOc1cccc(O)c1C(=O)CC | 11% | – | – | – | – | – | – | – | – | – | – | –
17 | < 5% | 21.3% | < 5% | < 5% | 27.5% | – | CCC(=O)c1c(O)cccc1OCCN1CCCCC1 | 40.4% | 19.7% | 29.2% | – | – | – | – | – | – | – | – | –
18 | < 5% | < 5% | 22.9% | < 5% | 40.4% | – | CCOC(=O)C(CCCOc1cccc(OCCN(CC)CC)c1C(=O)CC)C(=O)OCC | 17% | – | – | – | – | – | – | – | – | – | – | –
